Several values for one entry are separate records, joined by “and”; a condition that tells them apart may be missing. Identical values can stand only once. Entries after “also recorded” stand apart in the source; their conditions may differ. Like-named read-outs stand apart in the source and are kept apart here. Marks after values point to notes of the source that are not given here.
How the values were obtained:
IGF-1 [1] = experiment: IGF-1 levels in type II diabetic patients; format: in vivo, human; details: end of 12-week treatment period
Protocol: (§1) A double-blind placebo-controlled study was conducted in 53 type II diabetic patients (age=61±7 [SD]; 34% female) on stable antidiabetic medication (26% on insulin). Patients were randomized to parallel groups to receive daily subcutaneous administration of a placebo, 1 mg or 2 mg TH9507, respectively.

IGF-1 [2] = experiment: Mean IGF-1 values, influenza vaccination study; format: in vivo, human; details: 1 and 2 mg SC daily, whole 8-week treatment period
Protocol: (§2) Eighty seven (87) subjects aged 75 years in average were included in a double-bind, randomized, placebo-controlled study. TH9507 or a placebo was administered at a daily dose of 1 or 2 mg by subcutaneous injection for 8 weeks. Follow-up assessments were conducted for 12 weeks after the end of the treatment period. At week 4, in the middle of the treatment period, subjects received the commercial Canadian influenza vaccine (Vaccine Fluviral® S/F, Shire, Montreal, Canada) containing 15 μg each of A/New Caledonia/20/99, A/Panama/2007/99, B/Victoria/504/2000 antigens.
Values returned to baseline following cessation of treatment.

[3] = test system: type II diabetic patients; experiment: Glucose control in type II diabetic patients; format: in vivo, human; details: for glycosylated hemoglobin (HbA1c) levels: Week 12
Protocol: as §1
Clinically relevant changes in antidiabetic medications occurred with a similar incidence in the three treatment groups.

[4] = test system: HIV-infected patients with abdominal fat accumulation; experiment: Lipid parameters, HIV lipodystrophy study; details: mean (SD); for Chol:HDL, Δ / HDL, Δ / LDL, Δ / NONHDL Cholesterol, Δ / Total Cholesterol, Δ / Triglycerides, Δ: change from baseline, Week 12; for Triglyceride levels change / ratio of cholesterol to HDL change: last observation values
Protocol: (§3) Design: Randomized, placebo-controlled, multi-center, dose ranging (placebo, 1 mg or 2 mg SC QD), parallel group, 12-week study
At the baseline visit, anthropometric measurements were obtained. […] Biochemical parameters including insulin-like growth factor-I, glucose, insulin, lipid profile (cholesterol, HDL, LDL, triglyceride, non HDL and the ratio of cholesterol:HDL), free fatty acids, HbA1C, IGFBP-3, and bone markers (serum osteocalcin and NTX-1), CD4, viral load, and a pregnancy test for female subjects were determined in the fasting state. In addition, insulin and glucose response to a 75 gram standard glucose challenge were assessed and a quality of life questionnaire was administered.
Clinical laboratory testing was performed by a central lab. Serum IGF-1 was measured after acid-ethanol extraction using the Esoterix RIA kit (Esoterix Inc., Calabasas Hill, Calif.), with a sensitivity of 10 ng/mL. Intra- and inter-assay coefficients of variation were 4.6-20% and 9-10%, respectively. Serum IGFBP-3 was measured using the Esoterix RIA kit (Esoterix Inc., Calabasas Hill, Calif.) with a sensitivity of 0.3 mg/mL. Intra- and inter-assay coefficients of variation were 5.1-13% and 5.5-17%, respectively. HDL, LDL, total cholesterol, triglycerides and FFA were determined by enzymatic calorimetric assay. Glucose was measured by enzymatric test (Gluco-Quant®, Roche diagnostics, Indianapolis, Ind.). HbA1c was determined by chromatography.
Other endpoints included IGF-I, lipid parameters, glucose and insulin, CD4, viral load, bone markers, and quality of life. A sample size of 20 patients/group was planned to assess a statistically significant change of 10% or more in intra-group analyses. The planned dropout rate was 25% and therefore 60 patients were enrolled into the study. Baseline data are compared between the groups by F-test based on ANOVA for continuous variables and Chi-Square test for categorical variables. Change over time between groups is compared by ANOVA or the Chi-Square test. Where appropriate, data were rank transformed prior to analysis. Changes within each group are determined by t-test. The ITT (intent to treat) population is defined as all subjects who received at least one dose of the study treatment. Descriptive statistics and analyses for all efficacy and safety analyses are performed on the ITT population. End of study, 12 week, data are used to calculate changes in body composition. For biochemical indices, the last observation available is used to calculate change. Imputation for missing data is not performed. For body composition, end of study data are used to calculate change. Interim analyses were not performed. Results are mean (SD) unless otherwise noted. All statistical tests were performed with a two-sided Type I error level of 0.05.

[5] = test system: HIV-infected patients with abdominal fat accumulation; experiment: Body composition by DEXA, HIV lipodystrophy study; details: for Fat Mass, Δ / Lean Body Mass, Δ / Limb Fat, Δ / Trunk Fat, Δ: change from baseline, Week 12, mean (SD)
Protocol: as §3
(§4) Patients: 61 HIV-infected patients (BMI 28±3 [SD] kg/m^2, 28% diabetic or glucose intolerant) with increased waist circumference (102 cm±8 [SD]) and waist/hip (1.0±0.1 [SD])
(§5) At the baseline visit, anthropometric measurements were obtained. Total body lean and fat mass as well as regional fat mass in the trunk and extremities were assessed by DEXA. Abdominal subcutaneous and visceral fat area and the ratio of VAT to SAT were determined by cross-sectional CT at L4-L5.
(§6) Whole body and regional DEXA (dual energy X-ray absorptiometry) and cross-sectional abdominal CT scans were performed at the individual study sites based on previously established protocols and were standardized across sites. Digitized images were sent to a central reading center, St. Lukes Roosevelt Hospital, for analysis by independent experts without knowledge of treatment assignment. Each site was given a procedure manual to follow in obtaining the body composition data and was certified in the proper technique. For the CT scans, parameters were standardized as follows: Tube Voltage=120 kV, Tube Current=250 mA, Exposure=375 mAs, matrix 512×512. DFOV was set to include the entire slice into the field of view. For the DEXA scans total body scans were performed with analysis of lean body mass, total fat mass, and regional fat mass in the trunk and extremities as previously described (16).
(§7) Body composition endpoints included trunk fat and trunk to limb fat ratio by DEXA and VAT and VAT:SAT by CT scan. […] Baseline data are compared between the groups by F-test based on ANOVA for continuous variables and Chi-Square test for categorical variables. Change over time between groups is compared by ANOVA or the Chi-Square test. Where appropriate, data were rank transformed prior to analysis. Changes within each group are determined by t-test. The ITT (intent to treat) population is defined as all subjects who received at least one dose of the study treatment. Descriptive statistics and analyses for all efficacy and safety analyses are performed on the ITT population. End of study, 12 week, data are used to calculate changes in body composition. […] Imputation for missing data is not performed. For body composition, end of study data are used to calculate change. […] Results are mean (SD) unless otherwise noted. All statistical tests were performed with a two-sided Type I error level of 0.05.

In vitro half-life = format: in vitro ADME
Excerpt: The safety profile of TH9507 is generally good.

[6] = test system: HIV-infected patients with abdominal fat accumulation; experiment: Abdominal VAT and SAT by cross-sectional CT, HIV lipodystrophy study; details: for SAT, Δ / VAT, Δ: change from baseline, Week 12, mean (SD)
Protocol: as §3, §4, §5, §6, §7

[7] = test system: A/New Caledonia/20/99, A/Panama/2007/99, B/Victoria/504/2000 antigens; experiment: Influenza antibody titers by hemaglutination inhibition assay in elderly subjects; format: in vivo, human
[8] = test system: HIV-infected patients with abdominal fat accumulation; details: for CD4, Δ: change from baseline, Week 12, mean (SD)
Protocol: as §3
Biochemical parameters including insulin-like growth factor-I, glucose, insulin, lipid profile (cholesterol, HDL, LDL, triglyceride, non HDL and the ratio of cholesterol:HDL), free fatty acids, HbA1C, IGFBP-3, and bone markers (serum osteocalcin and NTX-1), CD4, viral load, and a pregnancy test for female subjects were determined in the fasting state.
Clinical laboratory testing was performed by a central lab. […] NTX (N-terminal telopeptide of type I collagen; a bone resorption marker) was measured by ELISA using a commercially available kit (Osteomark™, Ostex International Inc., Seattle, Wash.). Osteocalcin was measured using a commercially available enzymatic immunoassay kit (Metra™ osteocalcin, Quidel Corporation, San Diego, Calif.). CD4 and viral load were performed by the individual site labs by routine methodology.

IGF-1 [9] = details: daily 1 and 2 mg doses; reference (14); cited from earlier work
IGF-1 and IGFBP-3 = experiment: Circulating IGF-1 and IGFBP-3 levels, insomnia study; format: in vivo, human; details: week 2
[10] = Safety profile in the two vigilance studies; format: in vivo, human
[11] = format: in vivo, human; details: 1 or 2 mg SC daily, 8 weeks
Protocol: as §2

[12] = test system: patients exhibiting sleep maintenance insomnia; experiment: Continuous Performance Test (CPT), 14-day study in sleep maintenance insomnia; format: in vivo, human; details: 14 days
Protocol: Patients were selected based on the Pittsburgh Sleep Quality Index (Score ≧5), the Walters Criteria for Sleep Maintenance Insomnia, and the Beck Questionnaire (Score ≦17). The primary exclusion criteria were other primary sleep disorders and the use of any products affecting sleep or vigilance in the 30 days prior to entering the study.
The study was a randomized, double-blind, placebo-controlled, parallel group and multicenter evaluation of two doses of TH9507 (0.1 mg and 1 mg) administered daily by subcutaneous injection at bedtime for 14 consecutive days. To evaluate vigilance and the performance in the morning, patients underwent a battery of cognitive tests including the Continuous Performance Test (CPT) at baseline and at the end of treatment period.
The CPT has been described in the literature as a measure of consistency in responding and ability to sustain attention over time (Aleman A, et al., J Clin Endocrinol Metab 1999 84(2):471-475). This test required subjects to press space bar each time the letter “A” was followed by “X”. Omission and commission errors, and Mean Reaction Time of correct responses were analyzed.

[13] = test system: type II diabetic patients; details: patients with Type II DM, daily dose up to 2 mg; reference (15); cited from earlier work

For `CC/C=C/CC(=O)N[C@@H](Cc1ccc(O)cc1)C(=O)N[C@@H](C)C(=O)N[C@@H](CC(=O)O)C(=O)N[C@@H](C)C(=O)N[C@H](C(=O)N[C@@H](Cc1ccccc1)C(=O)N[C@H](C(=O)N[C@@H](CC(N)=O)C(=O)N[C@@H](CO)C(=O)N[C@@H](Cc1ccc(O)cc1)C(=O)N[C@@H](CCCNC(=N)N)C(=O)N[C@@H](CCCCN)C(=O)N[C@H](C(=O)N[C@@H](CC(C)C)C(=O)NCC(=O)N[C@@H](CCC(N)=O)C(=O)N[C@@H](CC(C)C)C(=O)N[C@@H](CO)C(=O)N[C@@H](C)C(=O)N[C@@H](CCCNC(=N)N)C(=O)N[C@@H](CCCCN)C(=O)N[C@@H](CC(C)C)C(=O)N[C@@H](CC(C)C)C(=O)N[C@@H](CCC(N)=O)C(=O)N[C@@H](CC(=O)O)C(=O)N[C@H](C(=O)N[C@@H](CCSC)C(=O)N[C@@H](CO)C(=O)N[C@@H](CCCNC(=N)N)C(=O)N[C@@H](CCC(N)=O)C(=O)N[C@@H](CCC(N)=O)C(=O)NCC(=O)N[C@@H](CCC(=O)O)C(=O)N[C@@H](CO)C(=O)N[C@@H](CC(N)=O)C(=O)N[C@@H](CCC(N)=O)C(=O)N[C@@H](CCC(=O)O)C(=O)N[C@@H](CCCNC(=N)N)C(=O)NCC(=O)N[C@@H](C)C(=O)N[C@@H](CCCNC(=N)N)C(=O)N[C@@H](C)C(=O)N[C@@H](CCCNC(=N)N)C(=O)N[C@@H](CC(C)C)C(N)=O)[C@@H](C)CC)C(C)C)[C@@H](C)O)[C@@H](C)CC` [TH9507, (hexenoyl trans-3)hGRF(1-44)NH2], the IGF-1 levels (IGF-1 [1]) was “dose-related increase”, the “mean IGF-1 values vs baseline” value (IGF-1 [2]) was “dose-related increase” and the “glycosylated hemoglobin (HbA1c) levels” value ([3]; 1 mg) was “a decrease”. The “glycosylated hemoglobin (HbA1c) levels” value ([3]; 2 mg) was “no change”, the “insulin relative response to an oral glucose tolerance test, between groups” value ([3]; placebo, 1 mg, 2 mg, treatment period) was “No statistically significant differences” and the “Chol:HDL, Δ” value ([4]; 1 mg SC QD) was −0.3 (0.6). The “HDL, Δ” value ([4]; 1 mg SC QD) was 0.0 (0.2) mmol/L, the “LDL, Δ” value ([4]; 1 mg SC QD) was 0.1 (0.8) mmol/L and the “NONHDL Cholesterol, Δ” value ([4]; 1 mg SC QD) was −0.4 (1.5) mmol/L. For the same molecule, the “Total Cholesterol, Δ” value ([4]; 1 mg SC QD) was −0.4 (1.7) mmol/L, the “Triglycerides, Δ” value ([4]; 1 mg SC QD) was −1.1 (4.4) mEq/L and the Triglyceride levels change ([4]; 1 mg SC QD) was −0.9 (4.2). The “ratio of cholesterol to HDL change” value ([4]; 1 mg SC QD) was −0.3 (0.7), the “Chol:HDL, Δ” value ([4]; 2 mg SC QD) was −0.3 (0.7) and the “HDL, Δ” value ([4]; 2 mg SC QD) was 0.1 (0.1)* mmol/L. The “LDL, Δ” value ([4]; 2 mg SC QD) was 0.2 (0.7) mmol/L, the “NONHDL Cholesterol, Δ” value ([4]; 2 mg SC QD) was −0.1 (0.7) mmol/L and the “Total Cholesterol, Δ” value ([4]; 2 mg SC QD) was −0.1 (0.8) mmol/L. The “Triglycerides, Δ” value ([4]; 2 mg SC QD) was −0.9 (1.3)* mEq/L, the Triglyceride levels change ([4]; 2 mg SC QD) was −0.9 (1.2) and the “ratio of cholesterol to HDL change” value ([4]; 2 mg SC QD) was −0.3 (0.6). The Trunk fat change ([5]; 1 mg SC QD, 12 weeks) was −4.6%, the “Fat Mass, Δ” value ([5]; 1 mg SC QD) was −0.4 (1.8) kg and the “Lean Body Mass, Δ” value ([5]; 1 mg SC QD) was 0.7 (2.0) kg. For the same molecule, the “Limb Fat, Δ” value ([5]; 1 mg SC QD) was 0.1 (0.5) kg, the “Trunk Fat, Δ” value ([5]; 1 mg SC QD) was −0.5 (1.4) kg and the Trunk fat change ([5]; 2 mg SC QD, 12 weeks) was −9.2%. For the same molecule, the “Fat Mass, Δ” value ([5]; 2 mg SC QD) was −1.4 (2.0) kg and −1.4 (2.0)* kg, the “Lean Body Mass, Δ” value ([5]; 2 mg SC QD) was 1.7 (2.3) kg and 1.7 (2.3)* kg and the “Limb Fat, Δ” value ([5]; 2 mg SC QD) was −0.3 (0.8) kg. For the same molecule, the “Trunk Fat, Δ” value ([5]; 2 mg SC QD) was −1.1 (1.3)* kg, the limb fat ([5]; 1 and 2 mg SC QD, 12 weeks) was “no significant change” and the half-life (In vitro half-life) was 3 to 8 h. The “Visceral fat (VAT) change” value ([6]; 1 mg SC QD, 12 weeks) was −3.6%, the “SAT, Δ” value ([6]; 1 mg SC QD) was 6.8 (21.2) cm^2 and the “VAT, Δ” value ([6]; 1 mg SC QD) was −11.9 (28.7) cm^2. The “Visceral fat (VAT) change” value ([6]; 2 mg SC QD, 12 weeks) was −15.7%, the “SAT, Δ” value ([6]; 2 mg SC QD) was 4.4 (19.8) cm^2 and the “VAT, Δ” value ([6]; 2 mg SC QD) was −21.5 (27.9)* cm^2. The “Visceral fat decrease within group” value ([6]; 2 mg, over 3 months) was “more than 15%”, the “subcutaneous fat (SAT)” value ([6]; 1 and 2 mg SC QD, 12 weeks, between or within groups) was “preserved; also recorded: did not change significantly” and the “percentage of subjects with protective antibody level” value ([7]; Panama and New Caledonia strains) was “No statistical difference”. The “proportion of patients achieving a protective antibody level vs placebo” value ([7]; Victoria antigen, statistically significant at 2 mg, weeks 6-20) was “increased”, the “CD4, Δ” value ([8]; 1 mg SC QD) was 24.4 (147.41) cells/mm^3 and the “CD4, Δ” value ([8]; 2 mg SC QD) was −23.2 (70.7) cells/mm^3. The “CD4 count and viral load” value ([8]; in vivo) was “did not change”, the IGF-I (IGF-1 [9]) was “increase IGF-I to the physiological range seen in younger adults” and the “Circulating IGF-1 level vs placebo” value (IGF-1 and IGFBP-3; 0.1 mg) was “did not affect”. The “Circulating IGFBP-3 level vs placebo” value (IGF-1 and IGFBP-3; 0.1 mg) was “did not affect”, the “Circulating IGF-1 level vs placebo” value (IGF-1 and IGFBP-3; 1 mg) was “significantly increased” and the “Circulating IGFBP-3 level vs placebo” value (IGF-1 and IGFBP-3; 1 mg) was “significantly increased”. The “reactions at the site of injection” value ([10]; 1 mg, insomnia study, vs placebo) was “higher incidence”, the safety profile ([10]; both vigilance studies) was “comparable to that of the placebo” and the “incidence of adverse events between treatment groups” value [11] was “No major difference”. For the same molecule, the “incidence of reactions at the site of injection” value [11] was “dose-related trend”, the “Mean Reaction Time of the CPT, decrease from baseline” value ([12]; 0.1 mg SC daily at bedtime, baseline to day 9) was 45.85 ms and the “Mean Reaction Time of the CPT vs placebo” value ([12]; 1 mg SC daily at bedtime) was “No significant effect”. For the same molecule, the overall glycemic control [13] was “not shown to aggravate overall glycemic control”.
